Source: paper PMC5218480 (PLoS ONE, 2017)

Test system: MV-4-11 cells
Assay: Gene expression microarray analysis (Affymetrix PrimeView) and GSEA
Type: cell-based, human
Set-up: RFU PODN (11730768_x_at) / Fold change /veh PODN (11730768_x_at) / RFU LINC00158 (11744669_a_at) / Fold change /veh LINC00158 (11744669_a_at) / RFU DUSP10 (11751237_a_at) / Fold change /veh DUSP10 (11751237_a_at) / RFU ID3 (11757404_x_at) / Fold change /veh ID3 (11757404_x_at) / RFU PLEKHG5 (11737974_s_at) / Fold change /veh PLEKHG5 (11737974_s_at) / RFU LRRC4B (11730491_at) / Fold change /veh LRRC4B (11730491_at) / RFU GIMAP4 (11747438_a_at) / Fold change /veh GIMAP4 (11747438_a_at) / RFU KRT8 (11758183_x_at) / Fold change /veh KRT8 (11758183_x_at) / RFU CNN1 (11734310_a_at) / Fold change /veh CNN1 (11734310_a_at) / RFU VPS37D (11726825_at) / Fold change /veh VPS37D (11726825_at) / RFU C10orf10 (11716522_x_at) / Fold change /veh C10orf10 (11716522_x_at) / RFU KIR2DL2 /// KIR2DL4 /// KIR2DL5A /// KIR2DL5B /// KIR2DS1 /// KIR2DS2 /// KIR2DS3 /// KIR2DS4 /// KIR3DL3 /// KIR3DL3 /// KIR3DS1 (11738374_at) / Fold change /veh KIR2DL2 /// KIR2DL4 /// KIR2DL5A /// KIR2DL5B /// KIR2DS1 /// KIR2DS2 /// KIR2DS3 /// KIR2DS4 /// KIR3DL3 /// KIR3DL3 /// KIR3DS1 (11738374_at) / RFU C1QL1 (11718748_at) / Fold change /veh C1QL1 (11718748_at) / RFU TMPRSS4 (11747572_a_at) / Fold change /veh TMPRSS4 (11747572_a_at) / RFU HAMP (11756126_x_at) / Fold change /veh HAMP (11756126_x_at) / RFU RNFT2 (11725882_a_at) / Fold change /veh RNFT2 (11725882_a_at) / RFU NR4A2 (11747474_a_at) / Fold change /veh NR4A2 (11747474_a_at) / RFU ABCC12 (11746883_a_at) / Fold change /veh ABCC12 (11746883_a_at) / RFU TMEM136 (11760407_x_at) / Fold change /veh TMEM136 (11760407_x_at) / RFU CLDN22 /// WWC2 (11732394_at) / Fold change /veh CLDN22 /// WWC2 (11732394_at) / RFU HLA-DPB1 (11760878_x_at) / Fold change /veh HLA-DPB1 (11760878_x_at) / RFU SPINT1 (11716480_a_at) / Fold change /veh SPINT1 (11716480_a_at) / RFU GAP43 (11754022_s_at) / Fold change /veh GAP43 (11754022_s_at) / RFU A4GNT (11735810_at) / Fold change /veh A4GNT (11735810_at) / RFU PRB3 (11715151_x_at) / Fold change /veh PRB3 (11715151_x_at) / RFU TUBB4B (11761932_at) / Fold change /veh TUBB4B (11761932_at) / RFU CAPN14 (11732068_a_at) / Fold change /veh CAPN14 (11732068_a_at) / RFU TMCC2 (11721928_a_at) / Fold change /veh TMCC2 (11721928_a_at) / RFU IRGQ (11745062_a_at) / Fold change /veh IRGQ (11745062_a_at) / RFU FAM174B (11720279_a_at) / Fold change /veh FAM174B (11720279_a_at) / RFU TMPRSS4 (11748680_a_at) / Fold change /veh TMPRSS4 (11748680_a_at) / RFU FAM212B (11763350_a_at) / Fold change /veh FAM212B (11763350_a_at) / RFU PLEKHG5 (11743358_a_at) / Fold change /veh PLEKHG5 (11743358_a_at) / RFU ZSCAN30 (11745921_a_at) / Fold change /veh ZSCAN30 (11745921_a_at) / RFU CMKLR1 (11741424_a_at) / Fold change /veh CMKLR1 (11741424_a_at) / RFU LOC101060620 /// MAPK8IP1 (11723275_at) / Fold change /veh LOC101060620 /// MAPK8IP1 (11723275_at) / RFU SPTSSB (11747773_x_at) / Fold change /veh SPTSSB (11747773_x_at) / RFU PRSS12 (11739890_at) / Fold change /veh PRSS12 (11739890_at) / RFU BIN1 (11741810_x_at) / Fold change /veh BIN1 (11741810_x_at) / RFU WNT11 (11732464_a_at) / Fold change /veh WNT11 (11732464_a_at) / RFU C10orf10 (11716521_a_at) / Fold change /veh C10orf10 (11716521_a_at) / RFU C5orf56 (11738089_at) / Fold change /veh C5orf56 (11738089_at) / RFU CYB561 (11721691_x_at) / Fold change /veh CYB561 (11721691_x_at) / RFU ANKRD19P (11752326_a_at) / Fold change /veh ANKRD19P (11752326_a_at) / RFU OR2T12 /// OR2T33 /// OR2T8 (11738714_s_at) / Fold change /veh OR2T12 /// OR2T33 /// OR2T8 (11738714_s_at) / RFU VCAN (11748164_a_at) / Fold change /veh VCAN (11748164_a_at) / RFU JSRP1 (11732532_at) / Fold change /veh JSRP1 (11732532_at) / RFU KRTAP10-11 (11738290_x_at) / Fold change /veh KRTAP10-11 (11738290_x_at) / RFU MYO3A (11730013_a_at) / Fold change /veh MYO3A (11730013_a_at) / RFU EBF3 (11725865_a_at) / Fold change /veh EBF3 (11725865_a_at) / RFU CAMK2N1 (11719241_x_at) / Fold change /veh CAMK2N1 (11719241_x_at) / RFU C5orf56 (11738088_a_at) / Fold change /veh C5orf56 (11738088_a_at) / RFU OLFML3 (11715873_a_at) / Fold change /veh OLFML3 (11715873_a_at) / RFU LOC100653217 /// NTM (11731650_a_at) / Fold change /veh LOC100653217 /// NTM (11731650_a_at) / RFU MAPK11 (11762145_a_at) / Fold change /veh MAPK11 (11762145_a_at) / RFU FIZ1 (11724087_x_at) / Fold change /veh FIZ1 (11724087_x_at) / RFU OASL (11726364_x_at) / Fold change /veh OASL (11726364_x_at) / RFU SOX15 (11748057_x_at) / Fold change /veh SOX15 (11748057_x_at) / RFU CD79A (11719716_a_at) / Fold change /veh CD79A (11719716_a_at) / RFU HIST1H1D (11736915_at) / Fold change /veh HIST1H1D (11736915_at) / RFU CASKIN2 (11723855_a_at) / Fold change /veh CASKIN2 (11723855_a_at) / RFU LOC730098 (11760151_x_at) / Fold change /veh LOC730098 (11760151_x_at) / RFU OR4N2 (11742367_at) / Fold change /veh OR4N2 (11742367_at) / RFU PRRT2 (11749266_a_at) / Fold change /veh PRRT2 (11749266_a_at) / RFU SNX32 (11753110_a_at) / Fold change /veh SNX32 (11753110_a_at) / RFU CDHR5 (11726645_a_at) / Fold change /veh CDHR5 (11726645_a_at) / RFU RCAN1 (11760418_a_at) / Fold change /veh RCAN1 (11760418_a_at) / RFU FAM167A (11723789_a_at) / Fold change /veh FAM167A (11723789_a_at) / RFU FAM26E (11764081_at) / Fold change /veh FAM26E (11764081_at) / RFU ISYNA1 (11749810_s_at) / Fold change /veh ISYNA1 (11749810_s_at) / RFU ACY1 (11761880_at) / Fold change /veh ACY1 (11761880_at) / RFU 11764098_at / Fold change /veh 11764098_at / RFU SAMD14 (11745864_x_at) / Fold change /veh SAMD14 (11745864_x_at) / RFU NPB (11741838_a_at) / Fold change /veh NPB (11741838_a_at) / RFU TMPRSS6 (11731388_a_at) / Fold change /veh TMPRSS6 (11731388_a_at) / RFU KRTAP10-2 (11738614_at) / Fold change /veh KRTAP10-2 (11738614_at) / RFU ARHGAP8 /// PRR5-ARHGAP8 (11727945_x_at) / Fold change /veh ARHGAP8 /// PRR5-ARHGAP8 (11727945_x_at) / RFU KRTAP5-7 /// NADSYN1 (11734609_at) / Fold change /veh KRTAP5-7 /// NADSYN1 (11734609_at) / RFU RASL12 (11751679_a_at) / Fold change /veh RASL12 (11751679_a_at) / RFU CDKN2B (11736163_a_at) / Fold change /veh CDKN2B (11736163_a_at) / RFU PRF1 (11729649_at) / Fold change /veh PRF1 (11729649_at) / RFU, ZNF638 /// ZNF638-IT1 / Fold change vs veh, ZNF638 /// ZNF638-IT1 / RFU, PANK3 / Fold change vs veh, PANK3 / RFU, SH3YL1 / Fold change vs veh, SH3YL1 / RFU, ZEB2 / Fold change vs veh, ZEB2 / RFU, NRIP1 / Fold change vs veh, NRIP1 / RFU, PTTG1IP / Fold change vs veh, PTTG1IP / RFU, CAPN2 / Fold change vs veh, CAPN2 / RFU, MED14 / Fold change vs veh, MED14 / RFU, SNORA58 / Fold change vs veh, SNORA58 / RFU, C1orf63 / Fold change vs veh, C1orf63 / RFU, LRRFIP1 / Fold change vs veh, LRRFIP1 / RFU, NDUFAF7 / Fold change vs veh, NDUFAF7 / RFU, SLC12A2 / Fold change vs veh, SLC12A2 / RFU, IBTK / Fold change vs veh, IBTK / RFU, ESF1 / Fold change vs veh, ESF1 / Fold change vs veh, TMEM50B / RFU, TAOK1 / Fold change vs veh, TAOK1 / RFU, ACBD3 / Fold change vs veh, ACBD3 / RFU, TMA16 / Fold change vs veh, TMA16 / RFU, RWDD3 / Fold change vs veh, RWDD3 / RFU, BCAT1 / Fold change vs veh, BCAT1 / RFU, EDEM3 / Fold change vs veh, EDEM3 / RFU, TMEM33 / Fold change vs veh, TMEM33 / RFU, WDR75 / Fold change vs veh, WDR75 / RFU, AHCTF1 / Fold change vs veh, AHCTF1 / RFU, TFRC / Fold change vs veh, TFRC / RFU, ZDHHC17 / Fold change vs veh, ZDHHC17 / RFU, NOM1 / Fold change vs veh, NOM1 / RFU, ARL8B / Fold change vs veh, ARL8B / RFU, ZBTB11 / Fold change vs veh, ZBTB11 / RFU, TAMM41 / Fold change vs veh, TAMM41 / RFU, KIAA1704 /// LOC100996395 / Fold change vs veh, KIAA1704 /// LOC100996395 / RFU, ING1 / Fold change vs veh, ING1 / RFU, TRMT61B / Fold change vs veh, TRMT61B / RFU, FUBP3 / Fold change vs veh, FUBP3 / RFU, TP53 / Fold change vs veh, TP53 / RFU, TNKS2 / Fold change vs veh, TNKS2 / RFU, ZFP14 / Fold change vs veh, ZFP14 / RFU, ACTR2 / Fold change vs veh, ACTR2 / RFU, PPP3R1 / Fold change vs veh, PPP3R1 / RFU, PIK3R1 / Fold change vs veh, PIK3R1 / RFU, HNRNPA1 / Fold change vs veh, HNRNPA1 / RFU, RNF170 / Fold change vs veh, RNF170 / RFU, ZNF28 / Fold change vs veh, ZNF28 / RFU, RNGTT / Fold change vs veh, RNGTT / RFU, OGT / Fold change vs veh, OGT / RFU, BRD1 / Fold change vs veh, BRD1 / RFU, MARS / Fold change vs veh, MARS / RFU, ZNF655 / Fold change vs veh, ZNF655 / RFU, FAHD1 / Fold change vs veh, FAHD1 / RFU, BDP1 / Fold change vs veh, BDP1 / RFU, LRRCC1 / Fold change vs veh, LRRCC1 / RFU, ARID1A / Fold change vs veh, ARID1A / RFU, ZNF146 / Fold change vs veh, ZNF146 / RFU, ZNF330 / Fold change vs veh, ZNF330 / RFU, GPN3 / Fold change vs veh, GPN3 / RFU, C9orf123 / Fold change vs veh, C9orf123 / RFU, N4BP2L2 / Fold change vs veh, N4BP2L2 / RFU, ARFIP1 / Fold change vs veh, ARFIP1 / RFU, FAM179B / Fold change vs veh, FAM179B / RFU, BCL10 / Fold change vs veh, BCL10 / RFU, UHRF1BP1L / Fold change vs veh, UHRF1BP1L / RFU, BET1 / Fold change vs veh, BET1 / RFU, CNOT2 / Fold change vs veh, CNOT2 / RFU, ZNF268 / Fold change vs veh, ZNF268 / Fold change vs veh, ZNF507 / RFU, DGCR2 / Fold change vs veh, DGCR2 / RFU, WDSUB1 / Fold change vs veh, WDSUB1 / Fold change vs veh, HSP90B1 /// MIR3652 / RFU, ADSS / Fold change vs veh, ADSS / RFU, GK / Fold change vs veh, GK / RFU, ZNF148 / Fold change vs veh, ZNF148 / RFU, TAF9 / Fold change vs veh, TAF9 / RFU, SLC1A5 / Fold change vs veh, SLC1A5 / RFU, SLMO2 / Fold change vs veh, SLMO2 / RFU, ABCC4 / Fold change vs veh, ABCC4 / RFU, LOC101060439 /// RAP1B / Fold change vs veh, LOC101060439 /// RAP1B / RFU, RFX7 / Fold change vs veh, RFX7 / RFU, GTPBP10 / Fold change vs veh, GTPBP10 / RFU, CNEP1R1 / Fold change vs veh, CNEP1R1 / RFU, BIVM-ERCC5 /// ERCC5 / Fold change vs veh, BIVM-ERCC5 /// ERCC5 / RFU, ILF3 / Fold change vs veh, ILF3 / RFU 11762660_at / Fold change /veh 11762660_at / RFU VCAN (11757783_s_at) / Fold change /veh VCAN (11757783_s_at) / RFU DDX43 (11728927_at) / Fold change /veh DDX43 (11728927_at) / RFU KRT8 (11758188_x_at) / Fold change /veh KRT8 (11758188_x_at) / RFU NKD1 (11759106_at) / Fold change /veh NKD1 (11759106_at) / RFU SRD5A1 (11742802_a_at) / Fold change /veh SRD5A1 (11742802_a_at) / RFU TPSAB1 /// TPSB2 (11721975_s_at) / Fold change /veh TPSAB1 /// TPSB2 (11721975_s_at) / RFU GSTM3 (11746129_a_at) / Fold change /veh GSTM3 (11746129_a_at) / RFU IL23R (11737362_x_at) / Fold change /veh IL23R (11737362_x_at) / RFU TMEM51 (11727254_a_at) / Fold change /veh TMEM51 (11727254_a_at) / RFU PIWIL2 (11732686_x_at) / Fold change /veh PIWIL2 (11732686_x_at) / RFU ORM1 (11744905_x_at) / Fold change /veh ORM1 (11744905_x_at) / RFU CCDC152 (11743942_at) / Fold change /veh CCDC152 (11743942_at) / RFU ECM1 (11717891_a_at) / Fold change /veh ECM1 (11717891_a_at) / RFU IL23R (11748794_a_at) / Fold change /veh IL23R (11748794_a_at) / RFU TNFAIP8L3 (11732012_x_at) / Fold change /veh TNFAIP8L3 (11732012_x_at) / RFU MBOAT4 (11741988_at) / Fold change /veh MBOAT4 (11741988_at) / RFU 11764193_at / Fold change /veh 11764193_at / RFU TMEM53 (11763286_at) / Fold change /veh TMEM53 (11763286_at) / RFU MAGEB2 (11727129_at) / Fold change /veh MAGEB2 (11727129_at) / RFU TMEM200A (11744735_a_at) / Fold change /veh TMEM200A (11744735_a_at) / RFU CCDC152 (11751479_a_at) / Fold change /veh CCDC152 (11751479_a_at) / RFU FAM211A (11726209_a_at) / Fold change /veh FAM211A (11726209_a_at) / RFU RGS16 (11746705_a_at) / Fold change /veh RGS16 (11746705_a_at) / RFU VCAN (11755009_s_at) / Fold change /veh VCAN (11755009_s_at) / RFU RHOB (11743442_s_at) / Fold change /veh RHOB (11743442_s_at) / RFU RGS16 (11720943_a_at) / Fold change /veh RGS16 (11720943_a_at) / RFU RGS16 (11720944_at) / Fold change /veh RGS16 (11720944_at) / RFU, VPS4B / Fold change vs veh, VPS4B / RFU, CREB1 / Fold change vs veh, CREB1 / RFU, DNAJC13 / Fold change vs veh, DNAJC13 / RFU, GNAQ / Fold change vs veh, GNAQ / RFU, CDK5R1 / Fold change vs veh, CDK5R1 / RFU, ZRANB3 / Fold change vs veh, ZRANB3 / RFU, CUL4A / Fold change vs veh, CUL4A / RFU, CCNY / Fold change vs veh, CCNY / RFU, UFL1 / Fold change vs veh, UFL1 / RFU, COG3 / Fold change vs veh, COG3 / RFU, DIAPH2 / Fold change vs veh, DIAPH2 / RFU, SKA2 / Fold change vs veh, SKA2 / RFU, AFF3 / Fold change vs veh, AFF3 / RFU, LMF1 / Fold change vs veh, LMF1 / RFU, IPO11 / Fold change vs veh, IPO11 / RFU, DFFB / Fold change vs veh, DFFB / RFU, FOXP1 / Fold change vs veh, FOXP1 / RFU, CARD8 / Fold change vs veh, CARD8 / RFU, STRN3 / Fold change vs veh, STRN3 / RFU, ADK / Fold change vs veh, ADK / RFU, RASSF2 / Fold change vs veh, RASSF2 / RFU, WIPF1 / Fold change vs veh, WIPF1 / RFU, LARP1B / Fold change vs veh, LARP1B / RFU, RASA1 / Fold change vs veh, RASA1 / RFU, RB1 / Fold change vs veh, RB1 / RFU, PPFIA1 / Fold change vs veh, PPFIA1 / RFU, MAT2A / Fold change vs veh, MAT2A / RFU, CCT5 / Fold change vs veh, CCT5 / RFU, WDR92 / Fold change vs veh, WDR92 / RFU, CUX1 / Fold change vs veh, CUX1 / RFU, TTC7A / Fold change vs veh, TTC7A / RFU, TMEM135 / Fold change vs veh, TMEM135 / RFU, DEPTOR / Fold change vs veh, DEPTOR / RFU, CPM / Fold change vs veh, CPM / RFU, DNAJB6 / Fold change vs veh, DNAJB6 / RFU, CACNA2D3 / Fold change vs veh, CACNA2D3 / RFU, DTX4 / Fold change vs veh, DTX4 / RFU, TFCP2 / Fold change vs veh, TFCP2 / RFU, GMCL1 /// GMCL1P1 / Fold change vs veh, GMCL1 /// GMCL1P1 / RFU, AEBP2 / Fold change vs veh, AEBP2 / RFU, SNHG1 /// SNORD22 /// SNORD25 /// SNORD26 /// SNORD27 /// SNORD28 /// SNORD29 /// SNORD31 / Fold change vs veh, SNHG1 /// SNORD22 /// SNORD25 /// SNORD26 /// SNORD27 /// SNORD28 /// SNORD29 /// SNORD31 / Fold change (Aza/veh), C12orf56 (ProbeSet 11735607_a_at) / Fold change (ACY-1035/veh), C12orf56 (ProbeSet 11735607_a_at) / Fold change (Aza/veh), FGFR1OP (ProbeSet 11751329_s_at) / Fold change (ACY-1035/veh), FGFR1OP (ProbeSet 11751329_s_at) / Fold change (Aza/veh), VPS36 (ProbeSet 11739960_a_at) / Fold change (ACY-1035/veh), VPS36 (ProbeSet 11739960_a_at) / RFU SYPL1 (11715823_x_at) / Fold change /veh SYPL1 (11715823_x_at) / RFU IGFBP7 (11715501_s_at) / Fold change /veh IGFBP7 (11715501_s_at) / RFU REEP3 (11722064_at) / Fold change /veh REEP3 (11722064_at) / RFU IGLL1 (11728026_x_at) / Fold change /veh IGLL1 (11728026_x_at): dose or concentration left out as unconfirmed
Conditions: ProbeSet 11723944_a_at; LIST B

Nc1ncn([C@@H]2O[C@H](CO)[C@@H](O)[C@H]2O)c(=O)n1 [azacitidine]
Fold change vs veh, PTTG1IP: 0.86
